For orientation: GI50 means the concentration giving 50% growth inhibition. Higher therefore signals less potent growth inhibition.

For experiment [1], the system named is T-Rex 293 cell line SC3 cells having increased expression of androgen receptor protein due to exposure to doxycycline. Description: Cellular growth inhibition, T-Rex 293 SC3 cells with doxycycline (increased androgen receptor expression), CellTiter-Glo. In kind it is cell-based. To be noted: T-Rex 293 SC3 cells with 10 ng/mL doxycycline (increased androgen receptor expression), 72 hours, CellTiter-Glo 2.0. Put shortly: (§1)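 Growth inhibition is measured in an inducible AR-expressing T-Rex 293 clone, SC3, cultured with or without 10 ng/mL doxycycline in hormone-depleted medium. Test compounds are applied for 72 hours. GI50 values derive from CellTiter-Glo 2.0 signal fitted by four-parameter regression.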

The test system of experiment [2] is T-Rex 293 cell line SC3 cells lacking increased expression of androgen receptor protein. Description: Cellular growth inhibition, T-Rex 293 SC3 cells without doxycycline (no increased androgen receptor expression), CellTiter-Glo. Particulars: T-Rex 293 SC3 cells not exposed to doxycycline (no increased androgen receptor expression), 72 hours. In kind it is cell-based. A digest of the protocol:
as §1
In general terms: ATP-based viability assays read luminescence as a measure of living cells.

Experiment [3] has as its system VCaP cells. Description: Cellular growth inhibition assay for VCaP cells, CellTiter-Glo. In kind it is cell-based, human. Particulars: 72 hours. Put shortly:
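GI50 values come from four-parameter curve fits of luminescence data normalized to a zero baseline. Compound, in medium with 0.5% DMSO, was added one day after plating and left for 72 h before CellTiter-Glo 2.0 addition.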

The test system of experiment [4] is T47D cells. The experiment in a line: Cellular Growth Inhibition Assay for T47D Cells (CellTiter-Glo). Format: cell-based, human. To be noted: 72 hours. A digest of the protocol: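 GI50 values derive from four-parameter regression of CellTiter-Glo 2.0 luminescence, using zero luminescence as baseline. Human breast cancer T47D cells (3000/well; DMEM, 10% FBS, 0.2 units/mL insulin) were exposed for 72 h to compound dilutions at 0.5% DMSO, with dosing starting 24 h after seeding.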

Consider `Cn1cc(-c2cc(C(C)(C)O)ccc2Oc2ccc(N3CC(CC4CCN(c5ncc(C(=O)N[C@H]6C(C)(C)[C@H](Oc7ccc(C#N)c(Cl)c7)C6(C)C)cn5)CC4)C3)cn2)c2cc[nH]c2c1=O` [Compound I-345, N-[3-(3-chloro-4-cyano-phenoxy)-2,2,4,4-tetramethyl-cyclobutyl]-2-[4-[[1-[6-[4-(1-hydroxy-1-methyl-ethyl)-2-(6-methyl-7-oxo-1H-pyrrolo [2,3-c]pyridin-4-yl)phenoxy]-3-pyridyl]azetidin-3-yl]methyl]-1-piperidyl]pyrimidine-5-carboxamide], for which the GI50 is < 500 nM in experiment [1], > 3000 nM in experiment [2], < 500 nM in experiment [3] (Homo sapiens) and < 500 nM in experiment [4] (Homo sapiens).
Consider `Cn1cc(-c2cc(C(C)(C)O)ccc2Oc2ccc(OC[C@@H]3CCCN(c4cnc(C(=O)N[C@H]5C(C)(C)[C@H](Oc6ccc(C#N)c(Cl)c6)C5(C)C)cn4)C3)cc2)c2cc[nH]c2c1=O` [Compound I-340], for which the concentration for 50% growth inhibition (GI50) in experiment [1] is > 3000 nM; in experiment [2], > 3000 nM; in experiment [3], > 3000 nM; in experiment [4] it was < 500 nM.
Take `Cn1cc(-c2cc(C(C)(C)O)ccc2Oc2ccc(CC3CC(C4CCCN(c5ncc(C(=O)N[C@H]6C(C)(C)[C@H](Oc7ccc(C#N)c(Cl)c7)C6(C)C)cn5)C4)C3)cc2)c2cc[nH]c2c1=O` (single isomer, unassigned) [Compound I-347]: the GI50 in experiment [1] is > 3000 nM; in experiment [2] it was > 3000 nM; in experiment [3], < 500 nM; in experiment [4] it was < 500 nM.
In the case of `CCS(=O)(=O)c1ccc(Oc2ccc(CCN3CC4(C3)CN(c3ncc(C(=O)N[C@H]5C(C)(C)[C@H](Oc6ccc(C#N)c(Cl)c6)C5(C)C)cn3)CCO4)cc2)c(-c2cn(C)c(=O)c3[nH]ccc23)c1` [Compound I-262], the GI50 in experiment [1], in experiment [2], in experiment [3] and in experiment [4] was < 500 nM in each case.
On to `Cn1cc(-c2cc(C(C)(C)O)ccc2OC2CCC(N3CC(OC4CCN(c5ncc(C(=O)NC6C(C)(C)C(Oc7ccc(C#N)c(Cl)c7)C6(C)C)cn5)CC4)C3)C2)c2cc[nH]c2c1=O` (stereo not shown) [Compound I-266, N-[3-(3-chloro-4-cyano-phenoxy)-2,2,4,4-tetramethyl-cyclobutyl]-2-[4-[1-[3-[4-(1-hydroxy-1-methyl-ethyl)-2-(6-methyl-7-oxo-1H-pyrrolo[2,3-c]pyridin-4-yl)phenoxy]cyclopentyl]azetidin-3-yl]oxy-1-piperidyl]pyrimidine-5-carboxamide], for which the 50% growth inhibitory concentration (GI50) in experiment [1] is < 500 nM; in experiment [2], 1500 to 3000 nM; in experiment [3] (Homo sapiens), < 500 nM; in experiment [4] (Homo sapiens), 500 to 1500 nM.
With `Cn1cc(-c2cc(C(C)(C)O)ccc2Oc2ccc(CCC3CN(c4ncc(C(=O)N[C@H]5C(C)(C)[C@H](Oc6ccc(C#N)c(Cl)c6)C5(C)C)cn4)CCO3)cc2)c2cc[nH]c2c1=O` (stereo partly shown) [Compound I-305], the concentration for 50% growth inhibition (GI50) in experiment [1] was < 500 nM; in experiment [2] it was > 3000 nM; in experiment [3] (Homo sapiens), < 500 nM; in experiment [4] (Homo sapiens), < 500 nM.
Take `Cn1cc(-c2cc(C(C)(C)O)ccc2Oc2ccc(N3CC(CC4CN(c5cnc(C(=O)N[C@H]6C(C)(C)[C@H](Oc7ccc(C#N)c(Cl)c7)C6(C)C)nc5)C4)C3)cc2)c2cc[nH]c2c1=O` [Compound I-323]: the GI50 in experiment [1] was 500 to 1500 nM; in experiment [2] it was 500 to 1500 nM; in experiment [3] (Homo sapiens), < 500 nM; in experiment [4] (Homo sapiens), < 500 nM.
Regarding `Cn1cc(-c2cc(NS(=O)(=O)C3CC3)ccc2Oc2cccc(N3CC(CC4CCN(c5ncc(C(=O)N[C@H]6C(C)(C)[C@H](Oc7ccc(C#N)c(Cl)c7)C6(C)C)cn5)CC4)C3)c2F)c2cc[nH]c2c1=O` [Compound I-170], the concentration for 50% growth inhibition (GI50) in experiment [1] was < 500 nM; in experiment [2], > 3000 nM; in experiment [3] it was < 500 nM; in experiment [4] it was 500 to 1500 nM.
For `CCS(=O)(=O)c1ccc(OC(CCCOC2CCN(c3ncc(C(=O)N[C@H]4C(C)(C)[C@H](Oc5ccc(C#N)c(Cl)c5)C4(C)C)cn3)CC2)C2CC2)c(-c2cn(C)c(=O)c3[nH]ccc23)c1` (stereo partly shown) [Compound I-236], the GI50 in experiment [1], in experiment [2], in experiment [3] and in experiment [4] was < 500 nM throughout.
Turning to `CCS(=O)(=O)Cc1ccc(Oc2cccc(OCCCC3CCN(c4ncc(C(=O)N[C@H]5C(C)(C)[C@H](Oc6ccc(C#N)c(Cl)c6)C5(C)C)cn4)CC3)c2)c(-c2cn(C)c(=O)c3[nH]ccc23)c1` [Compound I-257], the 50% growth inhibitory concentration (GI50) in experiment [1], in experiment [2], in experiment [3] (Homo sapiens) and in experiment [4] (Homo sapiens) was < 500 nM throughout.
On to `Cn1cc(-c2cc(C(C)(C)O)ccc2Oc2ccc(N3CC4(C3)CN(c3ncc(C(=O)N[C@H]5C(C)(C)[C@H](Oc6ccc(C#N)c(Cl)c6)C5(C)C)cn3)C4)cc2)c2cc[nH]c2c1=O` [Compound I-330], for which the GI50 in experiment [1], in experiment [2], in experiment [3] and in experiment [4] was < 500 nM throughout.
Take `Cn1cc(-c2cc(C(C)(C)O)ccc2Oc2ccc(CCC3CCN(c4ncc(C(=O)NC5C(C)(C)C(Oc6ccc(C#N)c(Cl)c6)C5(C)C)cn4)CC3)cn2)c2cc[nH]c2c1=O` (stereo not shown) [Compound I-287, N-[3-(3-chloro-4-cyano-phenoxy)-2,2,4,4-tetramethyl-cyclobutyl]-2-[4-[2-[6-[4-(1-hydroxy-1-methyl-ethyl)-2-(6-methyl-7-oxo-1H-pyrrolo[2,3-c]pyridin-4-yl)phenoxy]-3-pyridyl]ethyl]-1-piperidyl]pyrimidine-5-carboxamide]: the GI50 is < 500 nM in experiment [1], > 3000 nM in experiment [2], 500 to 1500 nM in experiment [3] (Homo sapiens) and < 500 nM in experiment [4] (Homo sapiens).
As for `CCS(=O)(=O)c1ccc(Oc2ccc(N3CC(C4CCN(c5ncc(C(=O)N[C@H]6C(C)(C)[C@H](Oc7ccc(C#N)c(Cl)c7)C6(C)C)cn5)CC4)C3)cc2)c(-c2cn(C)c(=O)c3[nH]ccc23)c1` [Compound I-291], the concentration for 50% growth inhibition (GI50) in experiment [1], in experiment [2], in experiment [3] and in experiment [4] was < 500 nM each time.
Consider `Cn1cc(-c2cc(C(C)(C)O)ccc2Oc2ccc(N3CC(CC4CN(c5ccc(C(=O)N[C@H]6C(C)(C)[C@H](Oc7ccc(C#N)c(Cl)c7)C6(C)C)nn5)C4)C3)cc2)c2cc[nH]c2c1=O` [Compound I-319], for which the 50% growth inhibitory concentration (GI50) in experiment [1], in experiment [2], in experiment [3] (Homo sapiens) and in experiment [4] (Homo sapiens) was < 500 nM each time.
For `Cn1cc(-c2cc(C(C)(C)O)ccc2OC2CC(OC3CCN(c4ncc(C(=O)NC5C(C)(C)C(Oc6ccc(C#N)c(Cl)c6)C5(C)C)cn4)CC3)C2)c2cc[nH]c2c1=O` (stereo not shown) [Compound I-274, N-[3-(3-chloro-4-cyano-phenoxy)-2,2,4,4-tetramethyl-cyclobutyl]-2-[4-[3-[4-(1-hydroxy-1-methyl-ethyl)-2-(6-methyl-7-oxo-1H-pyrrolo[2,3-c]pyridin-4-yl)phenoxy]cyclobutoxy]-1-piperidyl]pyrimidine-5-carboxamide], the GI50 in experiment [1], in experiment [2], in experiment [3] (Homo sapiens) and in experiment [4] (Homo sapiens) was < 500 nM throughout.
Turning to `Cn1cc(-c2ccccc2Oc2cccc(OCCC3CCN(c4ncc(C(=O)N[C@H]5C(C)(C)[C@H](Oc6ccc(C#N)c(Cl)c6)C5(C)C)cn4)CC3)c2F)c2cc[nH]c2c1=O` [Compound I-117], the 50% growth inhibitory concentration (GI50) in experiment [1] was < 500 nM; in experiment [2] it was > 3000 nM; in experiment [3], < 500 nM; in experiment [4], 500 to 1500 nM.
